Data taken from article PMC6272185 (Molecules, 2015).
Values after ≈ are worked out from the molar mass of the structure shown. Like-named read-outs stand apart in the source and are kept apart here.

Legend:
[1] = test system: TNF-α production by LPS-stimulated RAW 264.7 macrophages; test: Inhibition of TNF-α production by LPS-stimulated macrophages (ELISA); assay type: cell-based, murine; conditions: for IC50: Mus musculus, read-out: IC50 TNF-α
[2] = Macrophage cytotoxicity, LDH release assay; assay type: cell-based, murine; conditions: mouse, RAW 264.7 macrophages stimulated with LPS; LPS-stimulated RAW 264.7, LDH release; mean ± SD, n = 3
Description: (§5) Cytotoxic effects of chalcone samples on RAW 264.7 cell viability in cultures stimulated with LPS were determined using the LDH (lactate dehydrogenase) release assay as previously described [58]. Cytoplasmic enzyme LDH release into cell culture supernatants was detected using a commercial LDH kit (Doles, GO, Brazil). Cell death was expressed as percentage of LDH release, which was calculated using the following formula: percentage of LDH release = 100 × (test LDH release − spontaneous release)/(maximum release − spontaneous release). The maximum release was determined following dissolution of cell monolayers using 1% (vol/vol) Triton X-100. The spontaneous release was determined in supernatants from cultures incubated in the presence of LPS and DMSO, used as a solvent for chalcone samples.

M. bovis BCG = test: microbe, parasite or virus in culture; assay type: cell-based, Mycobacterium bovis BCG; conditions: for MIC50 / MIC90: Mycobacterium tuberculosis variant bovis BCG, BCG, 168 h; for MIC50: read-out: MIC50 M. bovis BCG; for MIC90: read-out: MIC90 M. bovis BCG
[3] = test system: IL-1β production by LPS-stimulated RAW 264.7 macrophages; test: Inhibition of IL-1β production by LPS-stimulated macrophages (ELISA); assay type: cell-based, murine; conditions: for inhibition of IL-1β: LPS-stimulated RAW 264.7; for IC50: Mus musculus, RAW264.7, 24 h, read-out: IC50 IL-1β
Description: (§1) Murine RAW 264.7 macrophage cell line (American Type Culture Collection, Manassas, VA, USA), was cultured in Dulbecco’s modified Eagle’s medium (DMEM-F12) supplemented with 10% Fetal Bovine Serum (FBS) and gentamicin (50 µg/mL) in 5% CO2 atmosphere at 37 °C. For experiments, the cells were seeded in 96-well plates (1 × 10^5 cells/well) and incubated for 24 h at 37 °C. For macrophage stimulation, the cell cultures were treated with LPS (1 µg/mL) and incubated for additional 24 h in the presence or absence of the chalcone samples (samples 1–41) that were used at concentrations of 100, 20, 4 and 0.8 µg/mL. In some experiments, a nitric oxide (NO) inhibitor, L-NMMA (20 μg/mL), was used as a positive control of NO inhibition, and a non-steroidal anti-inflammatory drug indomethacin, known to inhibit production of prostaglandins, was used as a positive control of PGE2 inhibition.
(§2) The frozen culture supernatants samples were thawed and immediately analyzed using commercially available enzyme-linked immunosorbent assay (ELISA) kits to measure TNF-α, IL-1β (BD Biosciences) and PGE2 (R&D Systems, Minneapolis, MN, USA), according to the manufacturer’s instructions. Standard curves for each mediator were generated using reference cytokine concentrations supplied by the manufacturer. Nitric oxide (NO) generation was assessed by the Griess method to measure nitrites, which are stable breakdown NO products.

[4] = test system: PGE2 production by LPS-stimulated RAW 264.7 macrophages; test: Inhibition of PGE2 production by LPS-stimulated macrophages (ELISA); assay type: cell-based, murine; conditions: Mus musculus, RAW264.7, 24 h, read-out: IC50 PGE2
Description: as §1, §2

[5] = test system: iNOS expression in RAW 264.7 macrophages; test: iNOS expression by western blot in LPS-stimulated macrophages; assay type: cell-based, murine; conditions: 20 µg/mL, LPS 1 µg/mL, 24 h
Description: (§3) RAW 264.7 macrophages were plated in Petri dishes (2 × 10^7 cells·mL^−1) and incubated for 24 h at 37 °C in 5% CO2 atmosphere. […] The resulted cellular monolayers were washed with PBS 1×, scraped and resuspended in PBS 1×, transferred and centrifuged to obtain cell pellets. The cells were lysed in buffer (10% SDS, 20% glycerol, 5% 2-mercaptoethanol, 2% bromophenol blue and 1 M Tris HCl, pH 6.8, containing protease inhibitors). Protein concentrations were estimated by Bradford method. For western blot analysis, cellular extract samples (60 µg) were submitted to 10% SDS–polyacrylamide gel electrophoresis under […] conditions and transferred to nitrocellulose membranes (Amersham Pharmacia Biotech, Uppsala, Sweden). After blocking with PBS-T (0.5% Tween-20) containing 2.5% (w/v) bovine serum albumin, the membranes were incubated with antibodies against iNOS (1:1000) and COX-2 (1:500) for 1 h at room temperature. After incubation period, the membranes were washed followed by treatment with horseradish peroxidase-conjugated secondary antibody. The resulting membranes were developed using diaminobenzidine/H2O2 as a substrate for peroxidase. In all electrophoresis experiments, a protein standard ladder (Full Range Rainbow-GE Healthcare, Piscataway, NJ, USA) was used to estimate proteins molecular size. Protein bands densitometric analysis was performed using ImageJ software for Windows (NIH, Bethesda, MD, USA). The value for stimulated condition (LPS- treated cells) was set as 1 and other conditions were recalculated correspondingly to allow ratio comparisons.

[6] = test system: COX-2 expression in RAW 264.7 macrophages; test: COX-2 expression by western blot in LPS-stimulated macrophages; assay type: cell-based, murine; conditions: 20 µg/mL, LPS 1 µg/mL, 24 h
Description: as §3

M. tuberculosis H37Rv = test: microbe, parasite or virus in culture; assay type: cell-based, Mycobacterium tuberculosis; conditions: for MIC90 / MIC50: Mycobacterium tuberculosis
M. tuberculosis M299 = test: microbe, parasite or virus in culture; assay type: cell-based, Mycobacterium tuberculosis; conditions: Mycobacterium tuberculosis, M299, 120 h
[7] = test system: M. tuberculosis strain H37Rv in RAW 264.7 macrophages; test: Intracellular growth of M. tuberculosis H37Rv in infected macrophages (CFU); assay type: cell-based, Mycobacterium tuberculosis; conditions: infected RAW 264.7, MOI 1:1, 4 days, Figure 3C; for MIC50: Mycobacterium tuberculosis, H37RV, 96 h
Description: (§4) RAW 264.7 macrophages were plated (1 × 10^5 cells/well) in antibiotic-free DMEM-F12 medium supplemented with 10% fetal bovine serum and incubated for 24 h. Prior to infection, mycobacterial suspensions were sonicated for 1 minute to disperse clumps and optical densities were adjusted to 0.1. The macrophage cultures were infected at a MOI of 1:1 (macrophage: bacterium). Phagocytosis was allowed to progress for 3 h. After 3 h, extracellular mycobacteria were removed by washing with PBS 1X and the infected cell monolayers were treated for 4 days with chalcone samples or rifampicin. Macrophage viability was monitored by LDH assay and was over 80% in all experiments. On day 4 after infection, cells were lysed cells with 1% saponin to release intracellular bacteria. Lysate aliquots were diluted 10-fold in PBS, plated in triplicates on 7H10 agar plates and incubated at 37 °C. After 21 days, total CFU were determined.

[8] = test system: RAW 264.7 macrophages infected with M. tuberculosis H37Rv; test: Toxicity for infected macrophages, LDH assay; assay type: cell-based, murine; conditions: Mus musculus, RAW264.7, 96 h; infected RAW 264.7, 4 days treatment; Figure 3D
Description: Cytotoxic effects of chalcone samples on RAW 264.7 cell viability in cultures stimulated with LPS were determined using the LDH (lactate dehydrogenase) release assay as previously described. Cytoplasmic enzyme LDH release into cell culture supernatants was detected using a commercial LDH kit (Doles, GO, Brazil). Cell death was expressed as percentage of LDH release, which was calculated using the following formula: percentage of LDH release = 100 × (test LDH release − spontaneous release)/(maximum release − spontaneous release). The maximum release was determined following dissolution of cell monolayers using 1% (vol/vol) Triton X-100. The spontaneous release was determined in supernatants from cultures incubated in the presence of LPS and DMSO, used as a solvent for chalcone samples.
as §4

[9] = test system: NO production by LPS-stimulated RAW 264.7 macrophages; test: Inhibition of NO production by LPS-stimulated macrophages (Griess); assay type: cell-based, murine; conditions: Mus musculus, RAW264.7, 24 h, LPS (1 µg/mL)-stimulated RAW 264.7, 24 h; mean ± SD, n = 3; read-out: IC50 NO
RAW 264.7 macrophages = test: Macrophage cytotoxicity, LDH release assay; assay type: cell-based, murine; conditions: LDH release
Description: as §5

[10] = RAW264.7, LPS (1 µg/mL)-stimulated RAW 264.7, 24 h, mean ± SD, n = 3
[11] = H37RV, 120 h, read-out: MIC50 M. tuberculosis H37Rv
[12] = Table 5, same values as M. tuberculosis H37Rv in Table 3, read-out: MIC50

O=C(/C=C/c1ccc2c(c1)OCO2)c1ccccc1 [Chalcone 5]
inhibition of TNF-α ([1]; LPS-stimulated RAW 264.7): strongly inhibit | IC50 [1, 10]: 48.1 ± 7.6 µM | IC50 [2]: > 396 µM | MIC50 (M. bovis BCG): 14.5 ± 6.1 µM (≈ 3.66 µg/mL) | MIC90 (M. bovis BCG): 75.3 ± 8.4 µM (≈ 19 µg/mL) | MIC90 M. bovis BCG (M. bovis BCG; culture, 7 days, MTT): 75.3 ± 8.4 µM (≈ 19 µg/mL) | inhibition of IL-1β [3]: potent inhibitors | IC50 [3]: 57.9 ± 4.9 µM | IC50 [4]: 23.1 ± 2.4 µM | inhibition of iNOS expression [5]: almost completely inhibit | abrogation of COX-2 expression [6]: most potent in abrogation | MIC90 M. tuberculosis H37Rv (M. tuberculosis H37Rv): 303.2 ± 5.4 µM (≈ 76.5 µg/mL) | MIC90 (M. tuberculosis H37Rv; H37RV, 120 h): 303 ± 5.4 µM (≈ 76.5 µg/mL) | MIC50 (M. tuberculosis H37Rv; [11]): 12.7 ± 1.9 µM (≈ 3.2 µg/mL) | MIC50 (M. tuberculosis H37Rv; [12]): 12.7 ± 1.9 µM (≈ 3.2 µg/mL) | MIC50 (M. tuberculosis M299): 11.7 ± 3.4 µM (≈ 2.95 µg/mL) | MIC90 (M. tuberculosis M299): 289.6 ± 0.7 µM (≈ 73.1 µg/mL) | MIC50 [7]: 3.8 ± 0.1 µM (≈ 0.959 µg/mL) | MIC50 intracellular M. tuberculosis H37Rv [7]: 3.8 ± 0.1 µM (≈ 0.959 µg/mL) | IC50 [8]: > 396 µM

O=C(/C=C/c1ccccc1)c1ccccc1Cl [Chalcone 31]
IC50 ([1]; RAW264.7, 24 h): > 412 µM | IC50 [2]: 267 ± 4.5 µM | MIC50 (M. bovis BCG): 90.9 ± 5.5 µM (≈ 22.1 µg/mL) | MIC90 (M. bovis BCG): 330 ± 4.2 µM (≈ 80.1 µg/mL) | IC50 [3]: > 412 µM | IC50 [4]: 10.2 ± 0.5 µM | inhibition of iNOS expression [5]: almost completely inhibit | abrogation of COX-2 expression [6]: most potent in abrogation

O=C(/C=C/c1ccc(Cl)cc1)c1ccccc1 [Chalcone 3]
IC50 [9]: 31.9 ± 4.6 µM | IC50 [1, 10]: 60.5 ± 4.7 µM | IC50 [2]: 400 ± 4.9 µM | MIC50 (M. bovis BCG): 20.7 ± 6.4 µM (≈ 5.02 µg/mL) | MIC90 (M. bovis BCG): 170 ± 5.4 µM (≈ 41.2 µg/mL) | inhibition of IL-1β [3]: potent inhibitors | IC50 [3]: 46.6 ± 4.6 µM | IC50 [4]: 19.9 ± 2.6 µM | inhibition of iNOS expression [5]: almost completely inhibit | abrogation of COX-2 expression [6]: most potent in abrogation | MIC90 (M. tuberculosis H37Rv; H37RV, 120 h): 372.7 ± 3.6 µM (≈ 90.5 µg/mL) | MIC50 (M. tuberculosis H37Rv; [11]): 13 ± 3.3 µM (≈ 3.16 µg/mL) | MIC50 (M. tuberculosis H37Rv; [12]): 13 ± 3.3 µM (≈ 3.16 µg/mL) | MIC50 (M. tuberculosis M299): 18.4 ± 3.9 µM (≈ 4.46 µg/mL) | MIC90 (M. tuberculosis M299): 373.9 ± 1.4 µM (≈ 90.7 µg/mL) | MIC50 [7]: 12.3 ± 1 µM (≈ 2.99 µg/mL) | IC50 [8]: 307 ± 5.1 µM

CN(C)c1ccc(/C=C/C(=O)c2ccc(Br)cc2)cc1 [Chalcone 11]
IC50 [9]: 41.3 ± 3.5 µM | IC50 [1, 10]: > 303 µM | IC50 [2]: 132 ± 2.9 µM | cytotoxicity profile (RAW 264.7 macrophages): worst cytotoxicity profiles | MIC50 (M. bovis BCG): 67.8 ± 3.8 µM (≈ 22.4 µg/mL) | MIC90 (M. bovis BCG): 242 ± 2.6 µM (≈ 79.9 µg/mL)
